Holding throughout (type): in vivo
The test system of series [1] is 3rd-instar larvae of Pyrausta nubilalis Hubern. The series is described as follows: Synergism assay (Bliss) of I-72 + abamectin, spinosad, spinetoram, emamectin benzoate, Example 6, Table 6. Conditions: Ostrinia nubilalis, 72 h, read-out: Mortality rate (%). On the procedure:
Test subject: 3rd-instar larvae of Pyrausta nubilalis Hubern, a sensitive strain reared indoors.
Test conditions: temperature: 24-26° C., humidity: RH 60%, and illumination: L:D=14:10
Preparation method: the test pesticides were accurately weighed respectively with an electronic analytical balance. After the two technical materials were respectively added into an appropriate amount of solvent and completely dissolved, the stock solution of the required concentration was prepared with water containing 0.1% Tween 80. The stock solutions of the two active ingredients were mixed in a certain ratio to prepare a mixed solution, which was then diluted respectively into a series of pesticide solutions with a certain concentration gradient according to the experimental design dosage.
Experimental method: the artificial diet-pesticide film method was adopted. A standard clean 24-well culture plate was selected. 1 ml of artificial diet was added to each well. After the diet cooled and solidified, a quantitative amount of a pesticide solution was added to the culture plate using a continuous sampler, and then it was air-dried naturally in the shade. The standard test insects were introduced, with 1 insect in each well, a total of 48 insects. The treated test insects were placed in an observation room under certain conditions. The reaction of the test insects was regularly observed, and the number of dead and live insects was investigated 72 h later.
The evaluation method adopted was the Bliss method. This method is applicable to the qualitative screening of insecticidal compositions. According to the concept of independent joint action he proposed, Bliss believes that the theoretical mortality rate P when insecticides are used in combination can be calculated by the following formula: […]
Pm is the mortality rate (%) of the target when the first active ingredient is at a concentration of m; and Pn is the mortality rate (%) of the target when the second active ingredient is at a concentration of n.
If the actual mortality rate of the target after the two active ingredients are mixed at a certain concentration is greater than theoretical mortality rate P, it is determined that the two active ingredients have a synergistic effect when used in combination at the set concentration, and otherwise, they have an antagonistic effect.

The test system of series [2] is 3rd-instar larvae of Spodoptera frugiperda. The series is described as follows: Joint toxicity of I-72 + spinosad, corn leaf dipping, Example 10, Table 10. The conditions noted are these: Spodoptera frugiperda, foliar, 72 h, A = compound I-72, B = spinosad, read-out: LC50. From the text:
Test subject: 3rd-instar larvae of Spodoptera frugiperda, a sensitive strain reared indoors.
Experimental method: the dipping method was adopted. The corn leaves cultivated in the greenhouse were taken, cut into leaf segments of 5 cm long, dipped in the prepared pesticide solution for 10 s, and then cut into small pieces of 1.5 cm×1.5 cm after natural air-drying in the shade. These pieces were placed in a 24-well culture plate, and the standard test insects were introduced, with 48 insects for each treatment. The treated test insects were placed in an observation room under certain conditions. The reaction of the test insects was regularly observed, and the number of dead and live insects was investigated 72 h later.
The test conditions, the preparation of the pesticide solution and the evaluation method were the same as those in Example 1.

The test system of series [3] is Frankliniella occidentalis Pergande. The series is described as follows: Joint toxicity of I-72 + organophosphorus insecticides, leaf dipping, Example 14, Table 14. The conditions noted are these: foliar, kidney bean leaf dipping, 48 h, A = compound I-72, B = triazophos, read-out: LC50.
Text: Test target: Frankliniella occidentalis Pergande, a sensitive strain reared indoors.
Experimental method: first, kidney bean leaves were selected and dipped in the prepared pesticide solution for 10 s in the order from low dosage to high dosage according to the experimental design. After natural air-drying in the shade, they were placed in a 9-cm-diameter Petri dish with filter paper, and uniform and healthy test insects were introduced, with about 20 insects for each treatment and 3 replicates for each treatment. In addition, a blank control was set up.
Series [4] relates to Aphis gossypii Glover nymphs. Kind of series: Joint toxicity of I-72 + organophosphorus insecticides, cotton leaf spraying, Example 17, Table 17. Conditions: nymphs, cotton leaf spraying, 48 h, A = compound I-72, B = diazinon, read-out: LC50. The method, then:
Test target: Aphis gossypii Glover nymphs, a sensitive strain reared indoors.
(§1) Preparation of the pesticide solution: according to different test requirements, the test samples were accurately weighed respectively with an electronic analytical balance. The technical pesticides were dissolved in acetone, and then diluted with 0.1% Tween 80 water into a series of pesticide solutions with a certain concentration gradient according to the experimental design dosage.
Experimental method: first, cotton leaves with uniform and consistent Aphis gossypii were selected, with about 20 insects on each leaf. Then, they were evenly sprayed with the pesticide solution in the order from low dosage to high dosage according to the experimental design, with 1.5 mL for each leaf and 3 replicates for each treatment. In addition, a blank control was set up.
The treated test materials were placed in an observation room, and the temperature, humidity and illumination of the observation room could be adjusted as needed. The number of dead and live insects was investigated 48 hours later. The corrected mortality rate was calculated using the Abbott's formula, and statistical analysis was performed with the DPS data processing software to obtain the toxicity regression equation, LC50 value and 95% confidence limit of each single test pesticide and each mixture of different ratios. Then, the co-toxicity coefficient of each ratio was calculated using the Sun Y-P method to evaluate the mixing effect (the same as in Example 1).

Series [5] deals with 2nd-instar larvae of Mythimna separata. Kind of series: Joint toxicity of I-72 + beta-cyfluthrin, Example 41, Table 41. The conditions noted are these: Mythimna separata, foliar; A = compound I-72, B = beta-cyfluthrin; corn leaf dipping; 72 hours; read-out: LC50. The method, then:
Test target: 2nd-instar larvae of Mythimna separata.
as §1
Experimental method: first, corn leaves were selected and dipped in the prepared pesticide solution for 10 s in the order from low dosage to high dosage according to the experimental design. After natural air-drying in the shade, they were placed in a 9-cm-diameter Petri dish with filter paper, and uniform and healthy test insects were introduced, with 10 insects for each treatment and 3 replicates for each treatment. In addition, a blank control was set up.
The treated test materials were placed in an observation room, and the temperature, humidity and illumination of the observation room could be adjusted as needed. The number of dead and live insects was investigated 72 hours later. […] Then, the co-toxicity coefficient of each ratio was calculated using the Sun Y-P method to evaluate the mixing effect (the same as in Example 1).

Series [6] concerns 3rd-instar larvae of Yponomeuta evonymallus (Linnaeus). Kind of series: Joint toxicity of I-72 + thiamethoxam, Example 66, Table 66. Conditions: A = compound I-72, B = thiamethoxam; leaf dipping; 72 hours. On the procedure: Test target: 3rd-instar larvae of Yponomeuta evonymallus (Linnaeus).
as §1
Experimental method: first, Hylotelephium spectabile leaves were selected and dipped in the prepared pesticide solution for 10 s in the order from low dosage to high dosage according to the experimental design. After natural air-drying in the shade, they were placed in a 9-cm-diameter Petri dish with filter paper, and uniform and healthy test insects were introduced, with 10 insects for each treatment and 3 replicates for each treatment. In addition, a blank control was set up.
The treated test materials were placed in an observation room, and the temperature, humidity and illumination of the observation room could be adjusted as needed. The number of dead and live insects was investigated 72 hours later.

Results on 1 compound are retold here after patent US20260198495A1, “BINARY INSECTICIDE COMPOSITION AND USE THEREOF” (SHENYANG SINOCHEM AGROCHEMICALS R & D CO., LTD., priority 2022, published 2026).

What is called mortality is the percentage killed. As usually defined, the LC50 is the concentration that kills 50% of the test population.

SMILES strings stand for the structures.

On to `CN(C(=O)c1ccc2c(c1)OC(F)(F)O2)c1cccc(C(=O)Nc2c(Br)cc(C(F)(C(F)(F)F)C(F)(F)F)cc2OC(F)F)c1F` [Compound I-72], for which, in series [1] (single agent 0.05 mg/L), the mortality at 0.05 µg/mL was 10.4%. Besides, in series [1] (single agent 0.1 mg/L), the mortality at 0.1 µg/mL was 25%. Also, the mortality at 1 µg/mL in series [1] (single agent 1 mg/L) was found to be 62.5%. In series [1] (single agent 2 mg/L), the mortality at 2 µg/mL is 72.9%. Besides, in series [1] (single agent 5 mg/L), the mortality at 5 µg/mL was 81.2%. The LC50 in series [2] came out at 0.0777 µg/mL; in series [3], 3.13 µg/mL; in series [4], 2.83 µg/mL; in series [5], 0.029 µg/mL; in series [6] it was 4.5752 µg/mL.
